The subject of the assay is HCV pseudoparticles (genotype 1a HCV E1 and E2 envelope, H77C isolate). Kind of assay: microbe, parasite or virus in culture. It counts as cell-based. The conditions noted are these: Hepatitis C virus.
The mark [1] stands for this setting: Huh-7, read-out: Activity (EC50 class), HCV pseudoparticles (genotype 1a, H77C) in Huh7 cells, EC50 expressed as class A/B.
The mark [2] stands for this setting: Huh-7, 48 h, read-out: Activity (EC50 class), HCV pseudoparticles, Huh7 cells, luciferase 2 days after infection, average of duplicates.
Where [3] appears, read: Huh-7, 48 h, read-out: Activity (EC50 class), HCV pseudoparticle infection of Huh7 cells, luciferase 2 days after infection, EC50 expressed as class A/B.
[4] abbreviates: Huh-7, 48 h, HCV pseudoparticles, Huh7 cells, luciferase 2 days after infection, average of duplicates.
Setting [5] is: Huh-7, 48 h, HCV pseudoparticle infection of Huh7 cells, luciferase 2 days after infection, average of duplicates.

Each structure is given as a SMILES string. Where two headings read alike, the source gives them in different places.

These results are taken from US8916702B2 (priority 2012, dated 2014).

As to `O=C(NCC[C@H](NC(=O)c1ccc(Nc2nc(NC3(c4ccc(Cl)cc4)CC3)nc(OCC(F)(F)F)n2)cc1)C(=O)O)C(=O)Nc1ccc(Oc2cccnc2)cc1` [Compound 3545], the EC50 (in general, the concentration that produces a half-maximal response) under setting [1] fell in the range of 0.01 to 10 nM.

Take `Cc1nc(-c2cccc(NC(=O)C(=O)NC[C@H](NC(=O)c3ccc(Nc4nc(NC5(c6ccc(Cl)cc6)CC5)nc(OCC(F)(F)F)n4)cc3)C(=O)O)c2)cs1` [Compound 3773]: under setting [2], the EC50 is 0.01 to 10 nM.

For the compound `CC(C)(C)CNC(=O)C(=O)NC[C@H](NC(=O)c1ccc(Nc2nc(NC3(c4ccc(Cl)cc4)CC3)nc(OCC(F)(F)F)n2)cc1)C(=O)O` [Compound 1450], the EC50 under setting [3] is 0.01 to 10 nM. Turning to `O=C(NC/C(=N/C(=O)c1ccc(Nc2nc(NC3(c4ccc(Cl)cc4)CC3)nc(OCC(F)(F)F)n2)cc1)C(=O)O)C(=O)Nc1ccc(-n2cncn2)cc1` [Compound 3168], the EC50 under setting [1] was in the range of 0.01 to 10 nM.

For `O=C(NCC[C@H](NC(=O)c1ccc(Nc2nc(NC3(c4ccc(Cl)cc4)CC3)nc(OCC(F)(F)F)n2)cc1)C(=O)O)C(=O)Nc1ccc(OCC(F)(F)F)cc1` [Compound 3226], under setting [1], the EC50 fell in the range of 0.01 to 10 nM. Take `CCCNc1ccc(NC(=O)C(=O)NCC[C@H](NC(=O)c2ccc(Nc3nc(NC4(c5ccc(Cl)cc5)CC4)nc(OCC(F)(F)F)n3)cc2)C(=O)O)cn1` [Compound 3657]: the EC50 under setting [2] lay within 0.01 to 10 nM. Consider `O=C(NCC[C@H](NC(=O)c1ccc(Nc2nc(NC3(c4ccc(Cl)cc4)CC3)nc(OCC(F)(F)F)n2)cc1)C(=O)O)C(=O)NCc1c(F)cccc1F` [Compound 1190], for which, under setting [3], the EC50 lay in the range of 0.01 to 10 nM.

`COC(=O)[C@H](CNC(=O)C(=O)Nc1ccc(N2CC(C)NC(C)C2)cc1)NC(=O)c1ccc(Nc2nc(NC3(c4ccc(Cl)cc4)CC3)nc(OCC(F)(F)F)n2)cc1` (stereo partly drawn) [Compound 3092]: the EC50 under setting [1] was 0.01 to 10 nM. Consider `Cc1ccc(NC(=O)C(=O)NCC(C)(C)CNC(=O)c2ccc(Nc3nc(NC4(c5ccc(Cl)cc5)CC4)nc(OCc4ccc(F)cc4)n3)cc2)cc1` [Compound 3845], for which the EC50 is 0.022 nM under setting [4] and 0.01 to 10 nM under setting [2].

For `COc1cccc(-c2ccc(NC(=O)C(=O)NCC(C)(C)CNC(=O)c3ccc(Nc4nc(NC5(c6ccc(Cl)cc6)CC5)nc(OCC(F)(F)F)n4)cc3)cc2)c1` [Compound 1581], under setting [3], the EC50 is 0.01 to 10 nM. Consider `COC(=O)[C@H](CCNC(=O)C(=O)N[C@@H](N)C1CC1)NC(=O)c1ccc(Nc2nc(NC3(c4ccc(Cl)cc4)CC3)nc(OCC(F)(F)F)n2)cc1` [Compound 1392], for which it took 0.14 nM to reach a half-maximal effect under setting [5] (EC50) and the EC50 under setting [3] lay within 0.01 to 10 nM. As for `Cn1cc(NC(=O)C(=O)NC[C@H](NC(=O)c2ccc(Nc3nc(NC4(c5ccc(Cl)cc5)CC4)nc(OCC(F)(F)F)n3)cc2)C(=O)O)cn1` [Compound 1356], the EC50 under setting [3] is 0.01 to 10 nM. Take `CC(CNC(=O)C(=O)Nc1cccc(F)c1)CNC(=O)c1ccc(Nc2nc(NC3(c4ccc(Cl)cc4)CC3)nc(OCC(F)(F)F)n2)cc1` (stereo not drawn) [Compound 3348]: the EC50 under setting [1] lay within 0.01 to 10 nM. For `COC(=O)[C@H](CNC(=O)C(=O)Nc1ccc(-c2ccc(C#N)cc2)cc1)NC(=O)c1ccc(Nc2nc(NC3(c4ccc(Cl)cc4)CC3)nc(OCC(F)(F)F)n2)cc1` [Compound 3103], the EC50 under setting [1] fell in the range of 0.01 to 10 nM.

As for `O=C(Nc1nccs1)C(=O)N[C@H](CCNC(=O)c1ccc(Nc2nc(NC3(c4ccc(Cl)cc4)CC3)nc(OCC(F)(F)F)n2)cc1)C(=O)O` [Compound 3496], under setting [1], the EC50 fell in the range of 10 to 1000 nM.

On to `Cc1ccc(NC(=O)C(=O)NCC(C)(C)CNC(=O)c2ccc(Nc3nc(NC4(c5ccc(Cl)cc5)CC4)nc(OCC(F)(F)F)n3)cc2)c(C#N)c1` [Compound 3454], for which the EC50 under setting [1] lay within 0.01 to 10 nM. With `CC(C)(CNC(=O)C(=O)Nc1cc[nH]n1)CNC(=O)c1ccc(Nc2nc(NC3(c4ccc(Cl)cc4)CC3)nc(OCC(F)(F)F)n2)cc1` [Compound 3794], the EC50 is 0.061 nM under setting [4] and 0.01 to 10 nM under setting [2]. For the compound `COC(=O)[C@H](CCNC(=O)C(=O)NC1CCC(C)CC1)NC(=O)c1ccc(Nc2nc(NC3(c4ccc(Cl)cc4)CC3)nc(OCC(F)(F)F)n2)cc1` (stereo partly drawn) [Compound 1109], under setting [3], the EC50 is 0.01 to 10 nM. Same read-out and setting: next, `CC(C)(CNC(=O)C(=O)Nc1ccc(O)cc1)CNC(=O)c1ccc(Nc2nc(NCc3ccc(O)cc3)nc(OCC(F)(F)F)n2)cc1` [Compound 1496]: 0.01 to 10 nM. `CC(C)(CNC(=O)C(=O)Nc1ccc(-n2cccn2)cc1)CNC(=O)c1ccc(Nc2nc(NC3(c4ccc(Cl)cc4)CC3)nc(OCC(F)(F)F)n2)cc1` [Compound 3795]: under setting [2], the 50% effective concentration (EC50) fell in the range of 0.01 to 10 nM. As for `COC(=O)[C@H](CCNC(=O)C(=O)Nc1ccc(-c2cnco2)cc1)NC(=O)c1ccc(Nc2nc(NC3(c4ccc(Cl)cc4)CC3)nc(OCC(F)(F)F)n2)cc1` [Compound 3122], the EC50 under setting [1] lay within 0.01 to 10 nM. Regarding `CC(C)(CNC(=O)C(=O)Nc1ccc(-c2ccc(-c3ccccc3)cc2)cc1)CNC(=O)c1ccc(Nc2nc(NC3(c4ccc(Cl)cc4)CC3)nc(OCC(F)(F)F)n2)cc1` [Compound 1564], the EC50 under setting [3] is 0.01 to 10 nM. Turning to `O=C(NCC[C@H](NC(=O)c1ccc(Nc2nc(NC3(c4ccc(Cl)cc4)CC3)nc(OCC(F)(F)F)n2)cc1)C(=O)O)C(=O)Nc1cccc(-c2cnco2)c1` [Compound 3621], the EC50 under setting [2] lay within 0.01 to 10 nM.

Regarding `CC(C)(C)OC(=O)NC1CCCC(NC(=O)C(=O)NCC[C@H](NC(=O)c2ccc(Nc3nc(NC4(c5ccc(Cl)cc5)CC4)nc(OCC(F)(F)F)n3)cc2)C(=O)O)C1` (stereo partly drawn) [Compound 1111], the EC50 under setting [3] lay within 0.01 to 10 nM.

As for `Cc1cc(NC(=O)C(=O)N(C)CCCNC(=O)c2ccc(Nc3nc(NC4(c5ccc(Cl)cc5)CC4)nc(OCC(F)(F)F)n3)cc2)no1` [Compound 3446], the EC50 under setting [1] lay within 0.01 to 10 nM. For `COC(=O)[C@H](CCNC(=O)C(=O)Nc1cn[nH]c1)NC(=O)c1ccc(Nc2nc(NC3(c4ccc(Cl)cc4)CC3)nc(OCC(F)(F)F)n2)cc1` [Compound 1224], the EC50 under setting [3] is 0.01 to 10 nM. Take `CC(C)(C)OC(=O)NC1CCCC(NC(=O)C(=O)NC[C@H](NC(=O)c2ccc(Nc3nc(NC4(c5ccc(Cl)cc5)CC4)nc(OCC(F)(F)F)n3)cc2)C(=O)O)C1` (stereo partly drawn) [Compound 1083]: it took 1.78 nM to reach a half-maximal effect under setting [5] (EC50) and the 50% effective concentration (EC50) under setting [3] lay in the range of 0.01 to 10 nM. On to `COc1ccccc1NC(=O)C(=O)NCC[C@H](NC(=O)c1ccc(Nc2nc(NC3(c4ccc(Cl)cc4)CC3)nc(OCC(F)(F)F)n2)cc1)C(=O)O` [Compound 1276], for which the EC50 under setting [3] lay in the range of 0.01 to 10 nM. For the compound `CC(C)(CNC(=O)C(=O)Nc1nc2ccc(C(C)(O)O)cc2s1)CNC(=O)c1ccc(Nc2nc(NC3(c4ccc(Cl)cc4)CC3)nc(OCC(F)(F)F)n2)cc1` [Compound 3822], the EC50 under setting [2] fell in the range of 0.01 to 10 nM. Consider `NC(=O)C(=O)NCC1(CNC(=O)c2ccc(Nc3nc(NC4(c5ccc(Cl)cc5)CC4)nc(OCC(F)(F)F)n3)cc2)CC1` [Compound 3175], for which the EC50 is, setting by setting: (Huh-7, 48 h, HCV pseudoparticles (genotype 1a, H77C) in Huh7 cells, average of duplicate, luciferase 2 days after infection) 0.11 nM; under setting [1], 0.01 to 10 nM. Regarding `O=C(NCC[C@H](NC(=O)c1ccc(Nc2nc(NC3(c4ccc(Cl)cc4)CC3)nc(OCC(F)(F)F)n2)cc1)C(=O)O)C(=O)Nc1cccc(Cc2ccccn2)c1` [Compound 3650], the EC50 under setting [2] was in the range of 0.01 to 10 nM. As for `CC(C)CNC(=O)C(=O)NCC(O)CNC(=O)c1ccc(Nc2nc(NC3(c4ccc(Cl)cc4)CC3)nc(OCC(F)(F)F)n2)cc1` (stereo not drawn) [Compound 3467], the EC50 under setting [1] lay in the range of 0.01 to 10 nM.

Consider `Cc1ccc(NC(=O)C(=O)NCC[C@H](NC(=O)c2ccc(Nc3nc(NC4(c5ccc(Cl)cc5)CC4)nc(OCC(F)(F)F)n3)cc2)C(=O)O)cn1` [Compound 3636], for which, under setting [2], the EC50 was 0.01 to 10 nM. Regarding `O=C(NCC[C@H](NC(=O)c1ccc(Nc2nc(NC3(c4ccc(Cl)cc4)CC3)nc(OCC(F)(F)F)n2)cc1)C(=O)O)C(=O)Nc1ccc(-n2cccn2)cc1` [Compound 3237], under setting [1], the EC50 lay within 0.01 to 10 nM.
